Source: article PMC4920673, “Nitroimidazole carboxamides as antiparasitic agents targeting Giardia lamblia, Entamoeba histolytica and Trichomonas vaginalis” (European Journal of Medicinal Chemistry, 2016)
Values after ≈ are worked out from the molar mass of the structure shown. Where two headings read alike, the source gives them in different places.

Tests used:
[1] = tested on: G. lamblia WB (MtzS); experiment: ATP-bioluminescence growth/survival EC50 assay, G. lamblia WB; conditions: for S.I (CC50/EC50): average cytotoxicity against HEK293 and HepG2 / G. lamblia WB activity
Description: (§1) Compounds were screened for antiparasitic activity using an ATP-bioluminescence based assay for cell growth and survival, [24]. […] Viable cell numbers were determined in triplicate using the CellTiter-Glo Luminescent Cell Viability Assay.

[2] = tested on: E. histolytica HM1:IMSS; experiment: ATP-bioluminescence growth/survival EC50 assay, E. histolytica; format: cell-based, Entamoeba histolytica
Description: as §1

[3] = tested on: C. difficile 630 (ATCC BAA-1382); experiment: Broth microdilution MIC assay, C. difficile 630; format: cell-based, Clostridium difficile; conditions: for MIC: Clostridioides difficile, ATCCBAA1382
Description: Clostridium difficile strains (630, ATCC BAA-1382 and NAP1/027, ATCC BAA-1803) were maintained as previously described. The minimum inhibition concentration (MIC) was determined according to the CLSI Methods with modifications in broth and inoculum for C. difficile, [25], [26]. Briefly, compounds and control antibiotics were serially diluted two-fold in 96-well plates (Non-binding surface, Corning). […] C. difficile bacteria from BHIS(TA) agar plates were cultured anaerobically in BHIS at 37 °C overnight. […] An antibiotic standard, a positive growth control (no compound) and a sterility control (no bacteria) were included on each 96 well plate. Plates were covered and incubated at 37 °C for 24 h. MICs for each strain were determined as the lowest concentration without visible growth. […] Median MICs are reported with a range given when the median MIC was between two tested concentrations.

[4] = tested on: C. difficile NAP1/027 (ATCC BAA-1803); experiment: Broth microdilution MIC assay, C. difficile NAP1/027; format: cell-based, Clostridium difficile; conditions: strain NAP1/027; for MIC: Clostridioides difficile, ATCCBAA1803
Description: Clostridium difficile strains (630, ATCC BAA-1382 and NAP1/027, ATCC BAA-1803) were maintained as previously described. The minimum inhibition concentration (MIC) was determined according to the CLSI Methods with modifications in broth and inoculum for C. difficile, [25], [26]. Briefly, compounds and control antibiotics were serially diluted two-fold in 96-well plates (Non-binding surface, Corning). The plates were placed in a Coy anaerobic chamber (5% H2, 10% CO2, 85% N2) overnight to reduce the medium. C. difficile bacteria from BHIS(TA) agar plates were cultured anaerobically in BHIS at 37 °C overnight. […]. Compound concentration ranged from 64 to 0.03 μg/mL. An antibiotic standard, a positive growth control (no compound) and a sterility control (no bacteria) were included on each 96 well plate. Plates were covered and incubated at 37 °C for 24 h. MICs for each strain were determined as the lowest concentration without visible growth. Variance between replicates was typically within one 2-fold dilution. Median MICs are reported with a range given when the median MIC was between two tested concentrations.

[5] = tested on: HEK293 cells; experiment: Resazurin cytotoxicity assay, HEK293; format: cell-based, Human; conditions: for Selectivity index (CC50/EC50): HEK293 CC50 / G. lamblia WB EC50
Description: (§2) Human HEK293 and HepG2 cells were seeded at 3000 and 5000 cells per well in 384-well plates, respectively. Cells were cultured in Dulbecco's modified Eagle's medium with 10% FBS for 24 h at 37 °C, 5% CO2. A dilution series of compounds was added, with the highest concentration of 100 μM. […] After 24 h incubation with the compounds, 5 μM resazurin was added into each well and incubated at 37 °C for 2 h. As a negative control, 1% Triton X-100 was added into the culture media to lyse all of the cells. The fluorescence intensity was read using Polarstar Omega with excitation/emission 560/590 nm. Data were analysed with GraphPad Prism 6 software (La Jolla, California USA) to calculate CC50 values.

[6] = tested on: HepG2 cells; experiment: Resazurin cytotoxicity assay, HepG2; format: cell-based, Human; conditions: for S.I (CC50/EC50), second value of a split cell: HepG2 CC50 / G. lamblia WB EC50
Description: as §2

[7] = tested on: G. lamblia 713M3 (MtzR); experiment: ATP-bioluminescence growth/survival EC50 assay, G. lamblia 713M3; format: cell-based, Giardia lamblia
Description: as §1

[8] = tested on: T. vaginalis F1623; experiment: ATP-bioluminescence growth/survival EC50 assay, T. vaginalis; format: cell-based, Trichomonas vaginalis
Description: as §1

[9] = Resazurin cytotoxicity assay, HEK293; format: cell-based, Human; conditions: human, 24 h
Description: as §2

[10] = Resazurin cytotoxicity assay, HepG2; format: cell-based, Human; conditions: human, 24 h
Description: as §2

[11] = Plasma protein binding by ultrafiltration; format: in vitro ADME; conditions: human, pooled human plasma (100%), 5 μM, 100% human plasma, 37 °C, 30 min, ultrafiltration; for fraction unbound at 30 min, 5 μM: read-out: Plasma protein binding (% bound); for fraction unbound at 0.5 h, 5 µM: read-out: Plasma protein binding (% bound) (converted)
Description: Plasma Protein Binding (PPB) was performed using an Ultrafiltration method, [28]. […] Samples were incubated at […] for 30 min, then centrifuged at 14,000 × g for 8 min, with the clear supernatant transferred to a vial for LC/MS/MS analysis. […] The fraction of unbound compound was calculated by determining the concentration of the filtered sample and the concentration of unfiltered sample. […] LC/MS/MS parameters are detailed in the supplementary information (Supplementary Table 1).

[12] = read-out: EC50 G. lamblia WB, MtzS strain WB, minimum n = 3
[13] = MtzS, minimum n = 3, read-out: EC50 E. histolytica HM1:IMSS
[14] = strain 630, MtzS, median of n = 4
[15] = MtzR strain 713M3, minimum n = 3, read-out: EC50 G. lamblia 713M3
[16] = MtzS, minimum n = 3, read-out: EC50 T. vaginalis F1623
[17] = Giardia duodenalis, read-out: EC50 G. lamblia WB, MtzS strain WB, minimum n = 3
[18] = Giardia duodenalis, read-out: pEC50 ± SE G. lamblia WB, MtzS strain WB (converted)
[19] = Giardia duodenalis, read-out: EC50 G. lamblia 713M3, MtzR strain 713M3, minimum n = 3
[20] = Giardia duodenalis, read-out: pEC50 ± SE G. lamblia 713M3, MtzR strain 713M3 (converted)
[21] = Entamoeba histolytica, read-out: EC50 E. histolytica HM1:IMSS
[22] = Entamoeba histolytica, read-out: pEC50 ± SE E. histolytica HM1:IMSS (converted)
[23] = Trichomonas vaginalis, read-out: EC50 T. vaginalis F1623, MtzS, minimum n = 3
[24] = Trichomonas vaginalis, read-out: pEC50 ± SE T. vaginalis F1623, MtzS (converted)
[25] = strain 630, MtzS, median of n = 4, read-out: MIC C. difficile 630
[26] = HEK293 cells, highest concentration 100 μM, n = 3, read-out: CC50 HEK 293
[27] = HepG2 cells, highest concentration 100 μM, n = 3, read-out: CC50 Hep G2

Molecule	pEC50 ± SE G. lamblia WB ([1]; MtzS strain WB)	S.I (CC50/EC50) [1]	EC50 [1, 12]	pEC50 ± SE E. histolytica HM1:IMSS ([2]; MtzS)	EC50 [2, 13]	MIC C. difficile 630 [3, 14]	MIC C. difficile NAP1/027 [4]	CC50 [5]	CC50 [6]	EC50 [1, 17]	EC50 [1, 18]	EC50 [7, 19]	EC50 [7, 20]	EC50 [2, 21]	EC50 [2, 22]	EC50 [8, 23]	EC50 [8, 24]	MIC [3, 25]	MIC [4]	CC50 at 24 h [9, 26]	other results
1-(cyclohexylmethyl)-4-nitro-1H-imidazole-2-carboxamide [Compound 13g]	5.30 ± 0.06	>20	5 µM	< 4.3	> 50 µM	>64 µg/mL	>64 µg/mL	> 100 µM	> 100 µM	–	–	–	–	–	–	–	–	–	–	–	–
1-(cyclopropylmethyl)-4-nitro-1H-imidazole-2-carboxamide [Compound 13f]	< 4.3	–	> 50 µM	< 4.3	> 50 µM	>64 µg/mL	>64 µg/mL	> 100 µM	> 100 µM	–	–	–	–	–	–	–	–	–	–	–	–
Cn1c([N+](=O)[O-])cnc1C(=O)NCc1ccc(OC(F)(F)F)cc1 [Compound 8b, 1-methyl-5-nitro-N-(4-(trifluoromethoxy)benzyl)-1H-imidazole-2-carboxamide]	5.52 ± 0.03	>33	3 µM	4.85 ± 0.02	14 µM	32 µg/mL (≈ 93 µM)	–	> 100 µM	> 100 µM	–	–	–	–	–	–	–	–	–	–	–	pEC50 ± SE G. lamblia 713M3 ([7]; MtzR strain 713M3): 5.06 ± 0.29; EC50 [7, 15]: 8.8 µM; pEC50 ± SE T. vaginalis F1623 ([8]; MtzS): 4.88 ± 0.01; EC50 [8, 16]: 13 µM
Cn1c([N+](=O)[O-])cnc1C(=O)NCc1cccc(OC(F)(F)F)c1 [Compound 8c, 1-methyl-5-nitro-N-(3-(trifluoromethoxy)benzyl)-1H-imidazole-2-carboxamide]	5.51 ± 0.02	>32	3.1 µM	4.77 ± 0.02	17 µM	32 to 64 µg/mL	64 µg/mL (≈ 186 µM)	> 100 µM	> 100 µM	–	–	–	–	–	–	–	–	–	–	–	pEC50 ± SE G. lamblia 713M3 ([7]; MtzR strain 713M3): 5.84 ± 0.69; EC50 [7, 15]: 1.5 µM; pEC50 ± SE T. vaginalis F1623 ([8]; MtzS): 5.09 ± 0.09; EC50 [8, 16]: 8.1 µM
Cn1c([N+](=O)[O-])cnc1C(=O)NC1CCCCC1 [Compound 8k, N-cyclohexyl-1-methyl-5-nitro-1H-imidazole-2-carboxamide]	–	>20	–	–	–	–	–	–	–	4.9 µM	4.9 µM	5.1 µM	5.01 µM	3.7 µM	3.72 µM	11 µM	10.7 µM	> 64 µg/mL	> 64 µg/mL	> 100 µM	CC50 at 24 h [10, 27]: > 100 µM; fraction unbound at 30 min, 5 μM [11]: ≤ 0.06; fraction unbound at 0.5 h, 5 µM [11]: 0.06
O=C(NCc1ccc(OC(F)(F)F)cc1)c1ncc([N+](=O)[O-])[nH]1 [Compound 12b, 5-nitro-N-(4-(trifluoromethoxy)benzyl)-1H-imidazole-2-carboxamide]	–	–	–	–	–	–	–	–	–	0.2 µM	0.245 µM	2.5 µM	2.51 µM	4.5 µM	4.47 µM	2.2 µM	2.24 µM	16 µg/mL (≈ 48.5 µM)	8 to 16 µg/mL (≈ 24.2 to 48.5 µM)	–	CC50 at 24 h ([9]; highest concentration 100 μM, n = 3, read-out: CC50 HEK 293): > 100 µM; Selectivity index (CC50/EC50) [5]: > 500; CC50 at 24 h [10, 27]: 93 µM; CC50 at 24 h ([10]; HepG2 cells, read-out: pCC50 ± SE Hep G2 (converted)): 93.3 µM; S.I (CC50/EC50), second value of a split cell [6]: 465
O=C(NC1CCCCC1)c1ncc([N+](=O)[O-])[nH]1 [Compound 12k, N-cyclohexyl-5-nitro-1H-imidazole-2-carboxamide]	–	>167	–	–	–	–	–	–	–	–	0.603 µM	5.5 µM	5.5 µM	2.8 µM	2.82 µM	2.4 µM	2.45 µM	8 µg/mL (≈ 33.6 µM)	8 µg/mL (≈ 33.6 µM)	> 100 µM	MIC ([3]; 630 and NAP1/027 strains together or strain not given, read-out: MIC C. difficile): 4 to 16 µg/mL (≈ 16.8 to 67.2 µM); CC50 at 24 h [10, 27]: > 100 µM; fraction unbound at 30 min, 5 μM [11]: ≤ 0.06; fraction unbound at 0.5 h, 5 µM [11]: 0.01
O=C(NO)c1nc([N+](=O)[O-])cn1Cc1ccc(OC(F)(F)F)cc1 [Compound 14d, N-hydroxy-4-nitro-1-(4-(trifluoromethoxy)benzyl)-1H-imidazole-2-carboxamide]	–	–	–	–	–	–	–	–	–	5.1 µM	5.13 µM	–	–	10 µM	10 µM	–	–	16 µg/mL (≈ 46.2 µM)	16 µg/mL (≈ 46.2 µM)	36 µM	CC50 at 24 h ([9]; HEK293 cells, read-out: pCC50 ± SE HEK293 (converted)): 36.3 µM; Selectivity index (CC50/EC50) [5]: 7; CC50 at 24 h ([10]; highest concentration 100 μM, n = 3, read-out: CC50 Hep G2): > 100 µM; S.I (CC50/EC50), second value of a split cell [6]: > 20
